Assay results: publication PMC10114980, “Triple targeting of mutant EGFR^L858R/T790M, COX-2, and 15-LOX: design and synthesis of novel quinazolinone tethered phenyl urea derivatives for anti-inflammatory and anticancer evaluation” (Journal of Enzyme Inhibition and Medicinal Chemistry, 2023)
Values joined by “and” are separate entries in the source; they are usually repeats but may differ in a detail not shown here. Equal values may be shown once.

Key:
wild-type EGFR = target: T1, wild-type EGFR (Homo sapiens, UniProt P00533); assay: In vitro EGFR inhibition assay, wild type; assay type: biochemical; conditions: read-out: EGFR^WT IC50
T1 construct: purchased AssayQuant Technologies, Inc. (Marlboro, MA, USA)
T1 sequence (P00533 25-1210): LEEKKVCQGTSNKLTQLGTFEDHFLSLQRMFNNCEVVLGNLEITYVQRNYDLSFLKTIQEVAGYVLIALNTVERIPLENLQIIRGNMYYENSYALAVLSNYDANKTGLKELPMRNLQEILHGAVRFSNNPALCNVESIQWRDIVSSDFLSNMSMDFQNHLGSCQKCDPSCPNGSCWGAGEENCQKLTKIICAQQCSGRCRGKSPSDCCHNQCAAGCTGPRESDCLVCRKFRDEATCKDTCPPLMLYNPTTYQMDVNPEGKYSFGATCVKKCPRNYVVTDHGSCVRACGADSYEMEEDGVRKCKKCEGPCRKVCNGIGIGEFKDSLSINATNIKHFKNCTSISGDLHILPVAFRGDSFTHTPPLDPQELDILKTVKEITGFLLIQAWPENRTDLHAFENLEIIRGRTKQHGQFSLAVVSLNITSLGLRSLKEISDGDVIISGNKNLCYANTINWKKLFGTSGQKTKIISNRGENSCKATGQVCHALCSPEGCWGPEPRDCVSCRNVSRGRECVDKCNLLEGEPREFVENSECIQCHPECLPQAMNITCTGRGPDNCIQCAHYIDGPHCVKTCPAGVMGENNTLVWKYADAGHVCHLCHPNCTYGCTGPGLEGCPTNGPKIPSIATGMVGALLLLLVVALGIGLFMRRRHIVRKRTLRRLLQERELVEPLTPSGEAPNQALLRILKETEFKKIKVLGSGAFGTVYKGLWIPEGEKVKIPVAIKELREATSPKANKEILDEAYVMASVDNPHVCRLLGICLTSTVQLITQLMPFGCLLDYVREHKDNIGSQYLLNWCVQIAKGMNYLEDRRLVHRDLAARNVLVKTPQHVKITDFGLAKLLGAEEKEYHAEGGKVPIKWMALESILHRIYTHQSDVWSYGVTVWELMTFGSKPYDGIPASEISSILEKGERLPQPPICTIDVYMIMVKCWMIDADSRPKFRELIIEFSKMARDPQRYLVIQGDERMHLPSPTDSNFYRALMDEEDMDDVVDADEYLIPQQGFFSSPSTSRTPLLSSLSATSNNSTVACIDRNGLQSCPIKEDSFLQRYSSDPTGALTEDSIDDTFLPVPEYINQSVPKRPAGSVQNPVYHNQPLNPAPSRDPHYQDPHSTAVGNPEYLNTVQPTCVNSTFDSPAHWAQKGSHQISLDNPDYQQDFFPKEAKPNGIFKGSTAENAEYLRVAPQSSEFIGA

[1] = target: T2, double mutant EGFR^L858R/T790M (Homo sapiens, UniProt P00533, L858R/T790M); assay: In vitro EGFR inhibition assay, double mutant; assay type: biochemical; conditions: for IC50: double mutant EGFR; for Selectivity (SI): ratio of the IC50 values EGFR^WT/EGFR^L858R/T790M
T2 construct: purchased AssayQuant Technologies, Inc. (Marlboro, MA, USA)
T2 sequence (P00533 25-1210 T790M/L858R): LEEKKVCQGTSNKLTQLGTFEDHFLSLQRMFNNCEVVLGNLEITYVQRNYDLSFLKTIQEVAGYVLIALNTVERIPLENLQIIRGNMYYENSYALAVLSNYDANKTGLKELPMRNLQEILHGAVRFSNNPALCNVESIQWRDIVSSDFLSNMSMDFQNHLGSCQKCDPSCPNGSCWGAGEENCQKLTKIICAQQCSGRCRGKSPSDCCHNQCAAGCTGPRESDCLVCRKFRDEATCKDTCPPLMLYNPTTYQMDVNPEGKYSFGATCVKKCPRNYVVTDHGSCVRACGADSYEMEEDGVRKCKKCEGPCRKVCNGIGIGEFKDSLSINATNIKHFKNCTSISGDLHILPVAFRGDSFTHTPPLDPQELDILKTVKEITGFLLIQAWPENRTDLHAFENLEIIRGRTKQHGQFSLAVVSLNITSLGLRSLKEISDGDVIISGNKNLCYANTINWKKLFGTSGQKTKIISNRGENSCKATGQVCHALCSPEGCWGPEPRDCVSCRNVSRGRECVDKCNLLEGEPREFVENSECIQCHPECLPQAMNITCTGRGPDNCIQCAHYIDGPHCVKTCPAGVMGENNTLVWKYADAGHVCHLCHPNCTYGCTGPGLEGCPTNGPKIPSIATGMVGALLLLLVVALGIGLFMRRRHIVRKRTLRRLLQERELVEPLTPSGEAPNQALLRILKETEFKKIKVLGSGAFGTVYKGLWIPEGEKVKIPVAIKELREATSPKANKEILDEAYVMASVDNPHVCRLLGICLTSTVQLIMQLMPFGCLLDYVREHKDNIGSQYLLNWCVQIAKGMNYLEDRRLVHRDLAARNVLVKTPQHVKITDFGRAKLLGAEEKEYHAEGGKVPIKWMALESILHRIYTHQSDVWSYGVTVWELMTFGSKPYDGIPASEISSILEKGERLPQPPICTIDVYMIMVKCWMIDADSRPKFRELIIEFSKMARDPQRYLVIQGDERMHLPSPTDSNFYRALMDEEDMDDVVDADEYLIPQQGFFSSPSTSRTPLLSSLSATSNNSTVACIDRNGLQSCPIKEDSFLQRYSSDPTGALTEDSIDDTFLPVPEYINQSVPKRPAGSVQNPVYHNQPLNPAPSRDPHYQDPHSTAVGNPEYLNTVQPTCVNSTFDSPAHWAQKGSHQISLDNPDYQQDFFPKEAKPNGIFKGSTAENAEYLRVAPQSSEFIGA

[2] = test system: LPS-induced IL-6 production in RAW 264.7 cells; assay: IL-6 production in LPS-activated RAW 264.7 cells (ELISA); assay type: cell-based; conditions: LPS-activated RAW 264.7 cells treated with 25 µM of the compound
[3] = test system: LPS-induced TNF-α production in RAW 264.7 cells; assay: TNF-α production in LPS-activated RAW 264.7 cells (ELISA); assay type: cell-based; conditions: LPS-activated RAW 264.7 cells treated with 25 µM of the compound
HL-60(TB) = assay: NCI single dose screen, HL-60(TB); assay type: cell-based; conditions: Homo sapiens, leukaemia, single dose 10^−5 M, read-out: growth inhibition percentage
Description: (§1) Screening of the anticancer activity of the newly synthesised compounds (6a, 6c, 6d, 6e, 6j, 6l, 6m, 6n, 6o, and 6p) was performed by the US National Cancer Institute (NCI) using 60 different human tumour cell lines in accordance with standard procedures formerly reported.
(§2) In vitro anticancer screening was carried out for the selected compounds at a single dose (10^−5 M) against 60 different human tumour cell lines of nine different cancer cell types: leukaemia, lung, colon, CNS, melanoma, ovarian, renal, prostate, and breast cancers.

K-562 = assay: NCI single dose screen, K-562; assay type: cell-based; conditions: Homo sapiens, K562; K-562, leukaemia; single dose 10^−5 M; read-out: growth inhibition percentage
Description: as §1, §2

MOLT-4 = assay: NCI single dose screen, MOLT-4; assay type: cell-based; conditions: Homo sapiens; MOLT-4, leukaemia; single dose 10^−5 M; read-out: growth inhibition percentage
Description: as §1, §2

RPMI-8226 = assay: NCI single dose screen, RPMI-8226; assay type: cell-based; conditions: Homo sapiens; RPMI-8226, leukaemia; single dose 10^−5 M; read-out: growth inhibition percentage
Description: as §1, §2

SR = assay: NCI single dose screen, SR; assay type: cell-based; conditions: Homo sapiens, leukaemia, single dose 10^−5 M, read-out: growth inhibition percentage
Description: as §1, §2

NCI-H226 = assay: NCI single dose screen, NCI-H226; assay type: cell-based; conditions: Homo sapiens; NCI-H226, non-small cell lung cancer; single dose 10^−5 M; read-out: growth inhibition percentage
Description: as §1, §2

HCC-2998 = assay: NCI single dose screen, HCC-2998; assay type: cell-based; conditions: Homo sapiens; HCC-2998, colon cancer; single dose 10^−5 M; read-out: growth inhibition percentage
Description: as §1, §2

HT29 = assay: NCI single dose screen, HT29; assay type: cell-based; conditions: Homo sapiens, HT-29; HT29, colon cancer; single dose 10^−5 M; read-out: growth inhibition percentage
Description: as §1, §2

SW-620 = assay: NCI single dose screen, SW-620; assay type: cell-based; conditions: Homo sapiens; SW-620, colon cancer; single dose 10^−5 M; read-out: growth inhibition percentage
Description: as §1, §2

SNB-19 = assay: NCI single dose screen, SNB-19; assay type: cell-based; conditions: Homo sapiens; SNB-19, CNS cancer; single dose 10^−5 M; read-out: growth inhibition percentage
Description: as §1, §2

SNB-75 = assay: NCI single dose screen, SNB-75; assay type: cell-based; conditions: Homo sapiens; SNB-75, CNS cancer; single dose 10^−5 M; read-out: growth inhibition percentage
Description: as §1, §2

MALME-3M = assay: NCI single dose screen, MALME-3M; assay type: cell-based; conditions: Homo sapiens, melanoma, single dose 10^−5 M, read-out: growth inhibition percentage
Description: as §1, §2

M14 = assay: NCI single dose screen, M14; assay type: cell-based; conditions: Homo sapiens; M14, melanoma; single dose 10^−5 M; read-out: growth inhibition percentage
Description: as §1, §2

SK-MEL-28 = assay: NCI single dose screen, SK-MEL-28; assay type: cell-based; conditions: Homo sapiens; SK-MEL-28, melanoma; single dose 10^−5 M; read-out: growth inhibition percentage
Description: as §1, §2

SK-MEL-5 = assay: NCI single dose screen, SK-MEL-5; assay type: cell-based; conditions: Homo sapiens; SK-MEL-5, melanoma; single dose 10^−5 M; read-out: growth inhibition percentage
Description: as §1, §2

UACC-257 = assay: NCI single dose screen, UACC-257; assay type: cell-based; conditions: Homo sapiens; UACC-257, melanoma; single dose 10^−5 M; read-out: growth inhibition percentage
Description: as §1, §2

OVCAR-3 = assay: NCI single dose screen, OVCAR-3; assay type: cell-based; conditions: Homo sapiens; OVCAR-3, ovarian cancer; single dose 10^−5 M; read-out: growth inhibition percentage
Description: as §1, §2

OVCAR-4 = assay: NCI single dose screen, OVCAR-4; assay type: cell-based; conditions: Homo sapiens; OVCAR-4, ovarian cancer; single dose 10^−5 M; read-out: growth inhibition percentage
Description: as §1, §2

NCI/ADR-RES = assay: NCI single dose screen, NCI/ADR-RES; assay type: cell-based; conditions: Homo sapiens, ovarian cancer, single dose 10^−5 M, read-out: growth inhibition percentage
Description: as §1, §2

SK-OV-3 = assay: NCI single dose screen, SK-OV-3; assay type: cell-based; conditions: Homo sapiens; SK-OV-3, ovarian cancer; single dose 10^−5 M; read-out: growth inhibition percentage
Description: as §1, §2

ACHN = assay: NCI single dose screen, ACHN; assay type: cell-based; conditions: Homo sapiens, renal cancer, single dose 10^−5 M, read-out: growth inhibition percentage
Description: as §1, §2

CAKI-1 = assay: NCI single dose screen, CAKI-1; assay type: cell-based; conditions: Homo sapiens; CAKI-1, renal cancer; single dose 10^−5 M; read-out: growth inhibition percentage
Description: as §1, §2

TK-10 = assay: NCI single dose screen, TK-10; assay type: cell-based; conditions: Homo sapiens; TK-10, renal cancer; single dose 10^−5 M; read-out: growth inhibition percentage
Description: as §1, §2

DU-145 = assay: NCI single dose screen, DU-145; assay type: cell-based; conditions: Homo sapiens; DU-145, prostate cancer; single dose 10^−5 M; read-out: growth inhibition percentage
Description: as §1, §2

MDA-MB-231/ATCC = assay: NCI single dose screen, MDA-MB-231/ATCC; assay type: cell-based; conditions: Homo sapiens, breast cancer, single dose 10^−5 M, read-out: growth inhibition percentage
Description: as §1, §2

HS 578T = assay: NCI single dose screen, HS 578T; assay type: cell-based; conditions: Homo sapiens, breast cancer, single dose 10^−5 M, read-out: growth inhibition percentage
Description: as §1, §2

BT-549 = assay: NCI single dose screen, BT-549; assay type: cell-based; conditions: Homo sapiens; BT-549, breast cancer; single dose 10^−5 M; read-out: growth inhibition percentage
Description: as §1, §2

Row | Structure (SMILES) | IC50 (wild-type EGFR) | IC50 [1] | Selectivity (SI) [1] | IL-6 concentration [2] | TNF-α concentration [3] | inhibition at 10 µM (HL-60(TB)) | inhibition at 10 µM (K-562) | inhibition at 10 µM (MOLT-4) | inhibition at 10 µM (RPMI-8226) | inhibition at 10 µM (SR) | inhibition at 10 µM (NCI-H226) | inhibition at 10 µM (HCC-2998) | inhibition at 10 µM (HT29) | inhibition at 10 µM (SW-620) | inhibition at 10 µM (SNB-19) | inhibition at 10 µM (SNB-75) | inhibition at 10 µM (MALME-3M) | inhibition at 10 µM (M14) | inhibition at 10 µM (SK-MEL-28) | inhibition at 10 µM (SK-MEL-5) | further results
1 | CN1c2ccccc2C(=O)N(NC(=O)Nc2ccccc2)C1c1ccccc1 (stereo not drawn) [Compound 6c, 1-(1-Methyl-4-oxo-2-phenyl-1,4-dihydroquinazolin-3(2H)-yl)-3-phenylurea] | > 100 µM | 7.93 ± 1.11 µM | >12.6 | 468.4 ± 87.46 pg/mL | 955.00 ± 4.66 pg/mL | < 10% | < 10% | < 10% | < 10% | < 10% | < 10% | < 10% | < 10% | < 10% | < 10% | < 10% | < 10% | < 10% | < 10% | < 10% | inhibition at 10 µM (UACC-257): < 10%; inhibition at 10 µM (OVCAR-3): 11.7%; inhibition at 10 µM (OVCAR-4): < 10%; inhibition at 10 µM (NCI/ADR-RES): < 10%; inhibition at 10 µM (SK-OV-3): < 10%; inhibition at 10 µM (ACHN): < 10%; inhibition at 10 µM (CAKI-1): < 10%; inhibition at 10 µM (TK-10): < 10%; inhibition at 10 µM (DU-145): < 10%; inhibition at 10 µM (MDA-MB-231/ATCC): < 10%; inhibition at 10 µM (HS 578T): 56.8%; inhibition at 10 µM (BT-549): < 10%
2 | COc1ccc(NC(=O)NN2C(=O)c3ccccc3N(C)C2c2ccc(OC)cc2)cc1 (stereo not drawn) [Compound 6j, 1-(4-Methoxyphenyl)-3-(2-(4-methoxyphenyl)-1-methyl-4-oxo-1,4-dihydroquinazolin-3(2H)-yl)urea] | > 100 µM | 4.03 ± 1.43 µM | >24.8 | 164.6 ± 5.09 pg/mL | 757.30 pg/mL and 757.30 ± 2.50 pg/mL | < 10% | < 10% | < 10% | < 10% | 11.6% | < 10% | < 10% | < 10% | < 10% | < 10% | < 10% | < 10% | 29.6% | < 10% | < 10% | inhibition at 10 µM (UACC-257): 21.9%; inhibition at 10 µM (OVCAR-3): 10.2%; inhibition at 10 µM (OVCAR-4): < 10%; inhibition at 10 µM (NCI/ADR-RES): < 10%; inhibition at 10 µM (SK-OV-3): < 10%; inhibition at 10 µM (ACHN): < 10%; inhibition at 10 µM (CAKI-1): < 10%; inhibition at 10 µM (TK-10): < 10%; inhibition at 10 µM (DU-145): < 10%; inhibition at 10 µM (MDA-MB-231/ATCC): < 10%; inhibition at 10 µM (HS 578T): < 10%; inhibition at 10 µM (BT-549): 70.1%
3 | CC1N(NC(=O)Nc2ccc(F)cc2)C(=O)c2ccccc2N1C (stereo not drawn) [Compound 6l, 1–(1,2-Dimethyl-4-oxo-1,4-dihydroquinazolin-3(2H)-yl)-3-(4-fluorophenyl)urea] | > 100 µM | 17 ± 1.4 µM | >5.8 | 536.8 ± 3.55 pg/mL | 1250.00 ± 5.82 pg/mL | < 10% | < 10% | < 10% | < 10% | < 10% | < 10% | < 10% | < 10% | < 10% | < 10% | < 10% | < 10% | < 10% | < 10% | < 10% | inhibition at 10 µM (UACC-257): < 10%; inhibition at 10 µM (OVCAR-3): 16.9%; inhibition at 10 µM (OVCAR-4): < 10%; inhibition at 10 µM (NCI/ADR-RES): < 10%; inhibition at 10 µM (SK-OV-3): < 10%; inhibition at 10 µM (ACHN): < 10%; inhibition at 10 µM (CAKI-1): < 10%; inhibition at 10 µM (TK-10): 15.4%; inhibition at 10 µM (DU-145): < 10%; inhibition at 10 µM (MDA-MB-231/ATCC): < 10%; inhibition at 10 µM (HS 578T): < 10%; inhibition at 10 µM (BT-549): < 10%
